Four compounds from ChEMBL document CHEMBL5052840, “Pharmaceutical compounds and therapeutic methods” (2020) can be followed below.

Molecules are shown by their SMILES. Activity calls are given as the source filed them. The rule behind the calls is not given here.

The target in series [1] is T1, Polycomb complex protein BMI-1 (Homo sapiens) (UniProt P35226).
T1 sequence (whole entry): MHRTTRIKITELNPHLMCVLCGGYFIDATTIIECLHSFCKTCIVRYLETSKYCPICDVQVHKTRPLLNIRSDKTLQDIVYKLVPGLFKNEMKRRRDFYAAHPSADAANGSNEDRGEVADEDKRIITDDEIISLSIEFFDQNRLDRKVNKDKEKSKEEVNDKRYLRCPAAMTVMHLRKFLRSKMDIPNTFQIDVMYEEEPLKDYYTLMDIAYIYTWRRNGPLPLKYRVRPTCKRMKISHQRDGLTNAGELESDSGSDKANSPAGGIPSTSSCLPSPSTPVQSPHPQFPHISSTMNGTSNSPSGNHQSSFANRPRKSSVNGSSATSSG
Briefly: Inhibition of BMI1 in human Glioblastoma cell 3D spheres at 7 to 10 nM assessed as reduction in STAT1 levels measured by Western blotting method. The series is classed as cell-based. The conditions noted are these: Glioblastoma cell line, dose 7-10 nM.

Series [2] addresses T1, Polycomb complex protein BMI-1 (Homo sapiens). Kind of series: Inhibition of BMI1 in human Glioblastoma cell 3D spheres at 7 to 10 nM assessed as reduction in BMI1 protein levels measured by Western blotting method. The series is classed as cell-based. The following applies: Glioblastoma cell line, dose 7-10 nM. (In general: A western blot detects proteins with antibodies after separation by electrophoresis.)

For series [3] the target is unchanged. Kind of series: Inhibition of BMI1 in human Glioblastoma cell 3D spheres at 7 to 10 nM assessed as reduction in phospho-RB levels measured by Western blotting method. The format is cell-based. The conditions noted are these: Glioblastoma cell line, dose 7-10 nM.
A short description of series [4]: Antiproliferative activity against human Glioblastoma cell after 72 hrs by MTT assay. The format is functional, cell-based. The conditions noted are these: Glioblastoma cell line. A general note: Tetrazolium dyes change colour on reduction, which living cells bring about.
Series [5] deals with T1, Polycomb complex protein BMI-1 (Homo sapiens). Briefly: Inhibition of BMI1 in human Glioblastoma cell 3D spheres at 7 to 10 nM assessed as reduction in PD-L1 protein levels measured up to 120 hrs by Western blotting method. The series is classed as cell-based. The conditions noted are these: Glioblastoma cell line, dose 7-10 nM, time hrs <=120.
Series [6] has the same target. Kind of series: Inhibition of BMI1 in human Glioblastoma cell 3D spheres at 7 to 10 nM assessed as reduction in phospho-RB levels measured up to 120 hrs by Western blotting method. The format is cell-based. The conditions noted are these: Glioblastoma cell line, dose 7-10 nM, time hrs <=120.
Series [7] has the same target. Kind of series: Inhibition of BMI1 in human Glioblastoma cell 3D spheres at 7 to 10 nM assessed as reduction in BMI1 protein levels measured up to 120 hrs by Western blotting method. The format is cell-based. The conditions noted are these: Glioblastoma cell line, dose 7-10 nM, time hrs <=120.
A short description of series [8]: Plasma concentration in male C57BL/6 mouse at 10 mg/kg, ip administered as single dose measured at 0.35 hrs measured by LC/MS-MS analysis. The series is classed as ADME, organism-based.
Series [9] in a line: Plasma concentration in male C57BL/6 mouse at 10 mg/kg, ip administered as single dose measured at 6 hrs measured by LC/MS-MS analysis. The series is classed as ADME, organism-based.
A short description of series [10]: Brain concentration in male C57BL/6 mouse at 10 mg/kg, ip administered as single dose measured at 1 hr measured by LC/MS-MS analysis. The series is classed as ADME, organism-based. The conditions noted are these: read-out: Drug uptake.
A short description of series [11]: Plasma concentration in male C57BL/6 mouse at 10 mg/kg, ip administered as single dose measured at 3 hrs measured by LC/MS-MS analysis. The format is ADME, organism-based.
Series [12] is described as follows: Plasma concentration in male C57BL/6 mouse at 10 mg/kg, po administered as single dose measured at 0.35 hrs measured by LC/MS-MS analysis. The series is classed as ADME, organism-based.
Series [13] can be described thus: Cmax in male C57BL/6 mouse plasma at 2 mg/kg, iv measured by LC/MS-MS analysis. The series is classed as ADME, organism-based. Also on record: route intravenous, dose 2 mg/kg.
The nature of series [14]: Plasma concentration in male C57BL/6 mouse at 10 mg/kg, po administered as single dose measured at 1 hr measured by LC/MS-MS analysis. The format is ADME, organism-based.
Series [15] can be described thus: Brain concentration in male C57BL/6 mouse at 10 mg/kg, po administered as single dose measured at 1 hr measured by LC/MS-MS analysis. The series is classed as ADME, organism-based. The following applies: read-out: Drug uptake.
Series [16] can be described thus: Brain concentration in male C57BL/6 mouse at 10 mg/kg, ip administered as single dose measured at 3 hrs measured by LC/MS-MS analysis. The series is classed as ADME, organism-based. The conditions noted are these: read-out: Drug uptake.
Series [17] is described as follows: AUClast in male C57BL/6 mouse brain at 10 mg/kg, po measured by LC/MS-MS analysis. The format is ADME, organism-based. The conditions noted are these: in vivo.
The nature of series [18]: Plasma concentration in male C57BL/6 mouse at 10 mg/kg, po administered as single dose measured at 0.08 hrs measured by LC/MS-MS analysis. The series is classed as ADME, organism-based.
Series [19] can be described thus: Plasma concentration in male C57BL/6 mouse at 10 mg/kg, po administered as single dose measured at 6 hrs measured by LC/MS-MS analysis. The format is ADME, organism-based.
Series [20] can be described thus: Cmax in male C57BL/6 mouse brain at 2 mg/kg, iv measured by LC/MS-MS analysis. The series is classed as ADME, organism-based. Also on record: route intravenous, dose 2 mg/kg.
Series [21] is described as follows: Brain concentration in male C57BL/6 mouse at 10 mg/kg, po administered as single dose measured at 0.08 hrs measured by LC/MS-MS analysis. The series is classed as ADME, organism-based. The conditions noted are these: read-out: Drug uptake.
Series [22] can be described thus: Brain concentration in male C57BL/6 mouse at 10 mg/kg, ip administered as single dose measured at 0.08 hrs measured by LC/MS-MS analysis. The format is ADME, organism-based. The conditions noted are these: read-out: Drug uptake.
Series [23] is described as follows: Plasma concentration in male C57BL/6 mouse at 10 mg/kg, ip administered as single dose measured at 0.08 hrs measured by LC/MS-MS analysis. The format is ADME, organism-based.
The nature of series [24]: Brain concentration in male C57BL/6 mouse at 10 mg/kg, ip administered as single dose measured at 6 hrs measured by LC/MS-MS analysis. The format is ADME, organism-based. The conditions noted are these: read-out: Drug uptake.
Series [25] can be described thus: Brain concentration in male C57BL/6 mouse at 10 mg/kg, po administered as single dose measured at 3 hrs measured by LC/MS-MS analysis. The conditions noted are these: read-out: Drug uptake. The format is ADME, organism-based.
Series [26] in a line: AUC (infinity) in male C57BL/6 mouse brain at 10 mg/kg, po measured by LC/MS-MS analysis. The series is classed as ADME, organism-based. Details: time infinity, route oral, dose 10 mg/kg. The following applies: in vivo.
Series [27] is described as follows: Plasma concentration in male C57BL/6 mouse at 2 mg/kg, iv administered as single dose measured at 0.35 hrs measured by LC/MS-MS analysis. The format is ADME, organism-based.
Series [28] is described as follows: Plasma concentration in male C57BL/6 mouse at 10 mg/kg, po administered as single dose measured at 3 hrs measured by LC/MS-MS analysis. The format is ADME, organism-based.
Series [29] in a line: Brain concentration in male C57BL/6 mouse at 2 mg/kg, iv administered as single dose measured at 1 hr measured by LC/MS-MS analysis. The following applies: read-out: Drug uptake. The format is ADME, organism-based.
Series [30] can be described thus: Brain concentration in male C57BL/6 mouse at 10 mg/kg, po administered as single dose measured at 0.35 hrs measured by LC/MS-MS analysis. The series is classed as ADME, organism-based. The conditions noted are these: read-out: Drug uptake.
A short description of series [31]: Oral bioavailability in male C57BL/6 mouse plasma at 10 mg/kg measured by LC/MS-MS analysis. The series is classed as ADME, organism-based.
Series [32] is described as follows: Brain concentration in male C57BL/6 mouse at 10 mg/kg, po administered as single dose measured at 6 hrs measured by LC/MS-MS analysis. The series is classed as ADME, organism-based. The conditions noted are these: read-out: Drug uptake.
Series [33] is described as follows: Plasma concentration in male C57BL/6 mouse at 2 mg/kg, iv administered as single dose measured at 1 hr measured by LC/MS-MS analysis. The format is ADME, organism-based.
The nature of series [34]: Plasma concentration in male C57BL/6 mouse at 10 mg/kg, ip administered as single dose measured at 1 hr measured by LC/MS-MS analysis. The format is ADME, organism-based.
Series [35] is described as follows: Brain concentration in male C57BL/6 mouse at 2 mg/kg, iv administered as single dose measured at 0.08 hrs measured by LC/MS-MS analysis. The following applies: read-out: Drug uptake. The format is ADME, organism-based.
A short description of series [36]: AUClast in male C57BL/6 mouse brain at 2 mg/kg, iv measured by LC/MS-MS analysis. The format is ADME, organism-based. The following applies: in vivo.
The nature of series [37]: Brain concentration in male C57BL/6 mouse at 2 mg/kg, iv administered as single dose measured at 0.35 hrs measured by LC/MS-MS analysis. The following applies: read-out: Drug uptake. The series is classed as ADME, organism-based.
Series [38] in a line: AUClast in male C57BL/6 mouse brain at 10 mg/kg, ip measured by LC/MS-MS analysis. The format is ADME, organism-based. The following applies: in vivo.
A short description of series [39]: Plasma concentration in male C57BL/6 mouse at 2 mg/kg, iv administered as single dose measured at 0.08 hrs measured by LC/MS-MS analysis. The format is ADME, organism-based.
Series [40] can be described thus: Brain concentration in male C57BL/6 mouse at 10 mg/kg, ip administered as single dose measured at 0.35 hrs measured by LC/MS-MS analysis. The format is ADME, organism-based. The conditions noted are these: read-out: Drug uptake.

`Cc1nc2ccccn2c1-c1csc(Nc2ccc3c(c2)OCO3)n1`: the inhibition entry in series [1] (tested as the 2H-labelled form), in [2] (tested as the 2H-labelled form) and in series [3] (tested as the 2H-labelled form) was “Active” throughout.

The IC50 is the concentration that gives 50% inhibition. As to `COc1ccc(Nc2nc(-c3c(C)nc4ccccn34)cs2)cc1`, the inhibition result in series [1] (tested as the 2H-labelled form), in series [2] (tested as the 2H-labelled form) and in series [3] (tested as the 2H-labelled form) was “Active” throughout. Moreover, the IC50 in series [4] is 10 nM.

With `COc1c(F)cc(Nc2nc(-c3c(C)nc4ccccn34)cs2)cc1F.Cl`, the inhibition result in series [5], in series [1], in series [6], in [2], in series [7] and in series [3] was “Active” throughout.

The Cmax is the highest concentration seen after dosing. What is called bioavailability is the share of a dose that reaches the circulation, judged against a reference dose that is usually intravenous. As to `Cl.[2H]C1([2H])Oc2ccc(Nc3nc(-c4c(C)nc5ccccn45)cs3)cc2O1`, the concentration at 0.35 h came out at 458 ng/mL in series [8]; 163 ng/mL in series [12]; 44.8 ng/mL in [27]; 53 ng/g in series [30]; 180 ng/g in [37]; 236 ng/g in [40]. The concentration at 6 h in series [9] stood at 43.7 ng/mL; in series [19] it was 45.5 ng/mL; in series [24], 26 ng/g; in series [32], 10.5 ng/g. In addition, the concentration at 1 h turned out to be 90.3 ng/g in series [10]; 109 ng/mL in series [14]; 51.9 ng/g in series [15]; 13.8 ng/g in series [29]; 9.57 ng/mL in [33]; 232 ng/mL in series [34]. Further, the concentration at 3 h turned out to be 74.9 ng/mL in series [11], 82 ng/g in series [16], 20.5 ng/g in [25] and 63.5 ng/mL in [28]. For the same compound, the Cmax was 430 ng/mL in series [13] and 44.9 ng/g in [20]. Besides, the AUClast was 171.84 ng·h/g in series [17], 97.08 ng·h/g in series [36] and 360.87 ng·h/g in [38]. Besides, the concentration at 0.08 h in [18] was 207 ng/mL; in series [21], 67.3 ng/g; in series [22], 288 ng/g; in series [23], 469 ng/mL; in series [35], 44.9 ng/g; in series [39], 256 ng/mL. The compound also yielded an AUC in [26] of 204.06 ng·h/g. This compound also displayed a bioavailability in series [31] of 100%.
